# Data from patent publication US20070093511A1, “Anhydrous Crystal Form of Valaciclovir Hydrochloride” (priority 2001, published 2007).
# Counter-ions that a name gives are not always drawn.
# Legend:
# [1] = Water content by Karl Fischer titration; assay type: physicochemical; details: Example 11 analysis
# Protocol: The water of hydration content is measured by the Karl Fischer method which is well known in the art and is described in the 1990 US Pharmacopoeia at pages 1619-1621, and the European Pharmacopoeia, second edition (1992) part 2, sixteenth fascicule at v. 3.5-6.1. Water content (by Karl Fisher titration): 0.61% w/w
# [2] = Stability and hygroscopicity of the crystal form (stated, no method); assay type: physicochemical; details: stated as advantage
# [3] = Thermogravimetric analysis (TGA); assay type: physicochemical; details: from 182-310° C., scan rate 10° C. per minute, associated with melting/decomposition
# Protocol: Thermogravimetric analysis was carried out on a Perkin-Elmer Pyris-1 TGA system. Scan rate of 10° C. per minute. Sample size 3.757 mg. The TGA trace is provided at FIG. 6. Weight loss from 182-310° C.=42.97% w/w associated with melting/decomposition
# [4] = compared with acyclovir; cited from earlier work
Water content (by Karl Fisher titration) [1],Hygroscopicity [2],Stability of crystal form [2],Weight loss [3],SMILES,Bioavailability [4]
0.61 % w/w,essentially non-hygroscopic,stable,42.97 % w/w,"CC(C)[C@H](N)C(=O)OCCOCn1cnc2c(=O)[nH]c(N)nc21 [Form 2 Valaciclovir Hydrochloride, valaciclovir hydrochloride]",–
–,–,–,–,CC(C)[C@H](N)C(=O)OCCOCn1cnc2c(=O)[nH]c(N)nc21 [valaciclovir],much improved bioavailability
